# What was measured:
# [1] = test system: Tumor sections; assay: FACS analysis for CD25, CD127 and FOXP3 expression, tumor sections; assay type: cell-based, human
# Protocol: The effect of treatment with Nivolumab and Pembrolizumab on CD25, CD127, and FOXP3 expression was then evaluated. Tumor sections or PBNCs from the same patient cultured for 3 days in the tumor microenvironment platform were treated with Pembrolizumab, Nivolumab, or IgG control for one day followed by FACS analysis for expression of CD25, CD127, and FOXP3.
# [2] = test system: HNSCC tumor tissue; assay: IHC for CD8, PD-L1, PD-1 and FOXP3 positive cells in tumor microenvironment platform; assay type: cell-based, human; conditions: T3; for number of PD-1^+ cells in the tumor microbed: vs IgG control
# Protocol: The effect of Pembrolizumab and Nivolumab on CD8^+ T cell tumor infiltration was then evaluated. Tumor sections from the same patient cultured for 72 hours in the tumor microenvironment platform were treated with Pembrolizumab, Nivolumab, or IgG as control and stained for H&E, Ki67, Caspase 3, and CD8 at day 3 in culture (T3). Baseline staining was determined at TO. […] To further elucidate the effects of the anti-PD-1 antibodies, FACS analysis was performed on tumor tissue from patient 2941 and patient 2942 treated with either Pembrolizumab, Nivolumab, or IgG control. […] By contrast, there was no effect of either Pembrolizumab or Nivolumab on CD8^+ T cell infiltration for patient 2942, further highlighting the differential response between individuals to PD-1 blockade. CD8^+ T cell infiltration was evaluated in the tumor microenvironment platform with tumor tissue from the same patient, and comparisons for control vs Nivo, control vs Pembro, Nivo vs Pembro, and control vs Nivo vs Pembro for multiple patients are shown in FIG. 6 (each line represents results from the tumor microenvironment platform cultured with tumor tissue from a single individual).
# The effect of Pembrolizumab and Nivolumab on the expression of immunoregulatory molecules, including PD-1 and FOXP3, in the tumor microenvironment platform tumor microbed was evaluated. Tumor sections from the same patient cultured for 3 days (72 hours) in the tumor microenvironment platform were treated with Pembrolizumab, Nivolumab, or IgG control and stained for CD8, FOXP3, and PD-1 at day 3 in culture (T3). Baseline staining was determined at TO. Results are shown in FIG. 7A for tumor sections from a predicted responder to Pembrolizumab or Nivolumab and FIG. 7B for a predicted non-responder to Pembrolizumab or Nivolumab, as characterized by M-score. There was in increase in the number of PD-1^+ cells in the tumor microbed for both Pembrolizumab and Nivolumab, which was to a greater degree in the case of Nivolumab, when compared to IgG control in the responder (FIG. 7A). There was no change for either Pembrolizumab and Nivolumab in the non-responder (FIG. 7B). The numbers of PD-L1^+ tumor cells, PD-1^+ T cells, FOXP3^+ T-regulatory cells, and CD8^+ T cells were evaluated using the tumor microenvironment platform with tumor tissue from the same patient in Nivolumab, Pembrolizumab, and control conditions, and are summarized in Table 3. Comparisons for control vs Nivo, control vs Pembro, Nivo vs Pembro, and control vs Nivo vs Pembro for multiple patients are shown in FIG. 8 (each line represents results from the tumor microenvironment platform cultured with tumor tissue from a single individual).
substance,measurement,setting,value
Pembrolizumab,CD25^+/FOXP3^− Tumor (% total cells),"[1]; Non-Responder, control 6.52",5.03 % total cells
same,CD25^+/CD127^+ Tumor (% total cells),"[1]; Non-Responder, control 19.6",17.8 % total cells
same,CD25^−/CD127^− Tumor (% total cells),"[1]; Non-Responder, control 22.1",24.9 % total cells
same,CD25^−/FOXP3^− Tumor (% total cells),"[1]; Non-Responder, control 23.6",10.7 % total cells
same,CD25^+/CD127^− Tumor (% total cells),"[1]; Non-Responder, control 25.4",24.3 % total cells
same,CD25^−/CD127^+ Tumor (% total cells),"[1]; Non-Responder, control 33.0",32.9 % total cells
same,CD25^+/FOXP3^+ Tumor (% total cells),"[1]; Non-Responder, control 34.4",35.8 % total cells
same,CD25^− FOXP3^+ Tumor (% total cells),"[1]; Non-Responder, control 35.5",48.4 % total cells
same,CD25^−/CD127^− Tumor (% total cells),"[1]; Responder, control 12.2",18.4 % total cells
same,CD25^− FOXP3^+ Tumor (% total cells),"[1]; Responder, control 18.9",42.5 % total cells
same,CD25^−/FOXP3^− Tumor (% total cells),"[1]; Responder, control 20.3",6.67 % total cells
same,CD25^+/CD127^− Tumor (% total cells),"[1]; Responder, control 23.0",17.7 % total cells
same,CD25^−/CD127^+ Tumor (% total cells),"[1]; Responder, control 24.3",31.2 % total cells
same,CD25^+/FOXP3^− Tumor (% total cells),"[1]; Responder, control 25.7",5.83 % total cells
same,CD25^+/FOXP3^+ Tumor (% total cells),"[1]; Responder, control 35.1",45.0 % total cells
same,CD25^+/CD127^+ Tumor (% total cells),"[1]; Responder, control 40.5",32.6 % total cells
same,"functional Treg cells (CD25, CD127, FOXP3 FACS)",[1]; platform containing tumor tissue,patient sample-dependent functional Treg cell depression
same,# cells/field PD-1^+,"[2]; Patient ID 2916, control 0",0 cells/field
same,# cells/field PD-L1^+,"[2]; Patient ID 2916, control 1",2 cells/field
same,# cells/field FOXP3^+,"[2]; Patient ID 2916, control 3",2 cells/field
same,# cells/field CD8^+,"[2]; Patient ID 2916, control 20",18 cells/field
same,# cells/field PD-1^+,"[2]; Patient ID 2918, control 2",0 cells/field
same,# cells/field FOXP3^+,"[2]; Patient ID 2918, control 3",3 cells/field
same,# cells/field CD8^+,"[2]; Patient ID 2918, control 10",14 cells/field
same,# cells/field PD-L1^+,"[2]; Patient ID 2918, control 10",10 cells/field
same,# cells/field PD-1^+,"[2]; Patient ID 2926, control 0",0 cells/field
same,# cells/field PD-L1^+,"[2]; Patient ID 2926, control 3",1 cells/field
same,# cells/field FOXP3^+,"[2]; Patient ID 2926, control 4",10 cells/field
same,# cells/field CD8^+,"[2]; Patient ID 2926, control 25",5 cells/field
same,# cells/field PD-1^+,"[2]; Patient ID 2928, control 0",0 cells/field
same,# cells/field PD-L1^+,"[2]; Patient ID 2928, control 0",1 cells/field
same,# cells/field CD8^+,"[2]; Patient ID 2928, control 4",1 cells/field
same,# cells/field FOXP3^+,"[2]; Patient ID 2928, control 4",1 cells/field
same,# cells/field CD8^+,"[2]; Patient ID 2939, control 0",5 cells/field
same,# cells/field PD-1^+,"[2]; Patient ID 2939, control 0",0 cells/field
same,# cells/field FOXP3^+,"[2]; Patient ID 2939, control 1",1 cells/field
same,# cells/field PD-L1^+,"[2]; Patient ID 2939, control 10",15 cells/field
same,# cells/field PD-1^+,"[2]; Patient ID 2941, control 0",1 cells/field
same,# cells/field FOXP3^+,"[2]; Patient ID 2941, control 3",4 cells/field
same,# cells/field PD-L1^+,"[2]; Patient ID 2941, control 3",6 cells/field
same,# cells/field CD8^+,"[2]; Patient ID 2941, control 5",7 cells/field
same,# cells/field PD-1^+,"[2]; Patient ID 2942, control 0",0 cells/field
same,# cells/field PD-L1^+,"[2]; Patient ID 2942, control 0",0 cells/field
same,# cells/field CD8^+,"[2]; Patient ID 2942, control 3",2 cells/field
same,# cells/field FOXP3^+,"[2]; Patient ID 2942, control 3",2 cells/field
same,# cells/field FOXP3^+,"[2]; Patient ID 2948, control 1",3 cells/field
same,# cells/field PD-1^+,"[2]; Patient ID 2948, control 1",0 cells/field
same,# cells/field PD-L1^+,"[2]; Patient ID 2948, control 10",1 cells/field
same,# cells/field CD8^+,"[2]; Patient ID 2948, control 20",25 cells/field
same,# cells/field PD-1^+,"[2]; Patient ID 2949, control 1",6 cells/field
same,# cells/field FOXP3^+,"[2]; Patient ID 2949, control 5",3 cells/field
same,# cells/field PD-L1^+,"[2]; Patient ID 2949, control 20",28 cells/field
same,# cells/field CD8^+,"[2]; Patient ID 2949, control 50",40 cells/field
same,# cells/field PD-1^+,"[2]; Patient ID 2956, control 0",0 cells/field
same,# cells/field CD8^+,"[2]; Patient ID 2956, control 1",1 cells/field
same,# cells/field PD-L1^+,"[2]; Patient ID 2956, control 2",0 cells/field
same,# cells/field FOXP3^+,"[2]; Patient ID 2956, control 8",1 cells/field
same,# cells/field PD-1^+,"[2]; Patient ID 2963, control 0",0 cells/field
same,# cells/field CD8^+,"[2]; Patient ID 2963, control 6",2 cells/field
same,# cells/field FOXP3^+,"[2]; Patient ID 2963, control 10",2 cells/field
same,# cells/field PD-L1^+,"[2]; Patient ID 2963, control 12",10 cells/field
same,# cells/field PD-1^+,"[2]; Patient ID 2978, control 0",0 cells/field
same,# cells/field FOXP3^+,"[2]; Patient ID 2978, control 1",2 cells/field
same,# cells/field PD-L1^+,"[2]; Patient ID 2978, control 1",1 cells/field
same,# cells/field CD8^+,"[2]; Patient ID 2978, control 12",22 cells/field
same,# cells/field PD-1^+,"[2]; Patient ID 2979, control 0",0 cells/field
same,# cells/field FOXP3^+,"[2]; Patient ID 2979, control 2",3 cells/field
same,# cells/field PD-L1^+,"[2]; Patient ID 2979, control 5",8 cells/field
same,# cells/field CD8^+,"[2]; Patient ID 2979, control 25",10 cells/field
same,# cells/field PD-1^+,"[2]; Patient ID 2980, control 0",0 cells/field
same,# cells/field FOXP3^+,"[2]; Patient ID 2980, control 1",2 cells/field
same,# cells/field PD-L1^+,"[2]; Patient ID 2980, control 8",2 cells/field
same,# cells/field CD8^+,"[2]; Patient ID 2980, control 30",8 cells/field
same,# cells/field FOXP3^+,"[2]; Patient ID 2981, control 0",1 cells/field
same,# cells/field PD-1^+,"[2]; Patient ID 2981, control 0",0 cells/field
same,# cells/field PD-L1^+,"[2]; Patient ID 2981, control 0",0 cells/field
same,# cells/field CD8^+,"[2]; Patient ID 2981, control 1",12 cells/field
same,number of PD-1^+ cells in the tumor microbed,[2]; predicted non-responder,no change
same,number of PD-1^+ cells in the tumor microbed,"[2]; predicted responder, to a greater degree in the case of Nivolumab",increase

# Reference: patent US20200333324A1, “METHOD OF PREDICTING CLINICAL OUTCOME OF ANTICANCER AGENTS” (MITRA RXDX, INC., priority 2017, published 2020)
